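Test compounds were applied to cells in 96-well plates for 48 hours at 5 doses. The concentration for full growth arrest is given as TGI.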
What was measured:
Assay in all cases: NCI tumour cell line growth inhibition, 48 h
[1] = system: UACC-62 melanoma
[2] = system: DU-145 prostate
[3] = system: SN12C renal
[4] = system: NCI-H460 lung
[5] = system: RPMI-8226 leukemia
[6] = system: ACHN renal
[7] = system: MDA-MB-435
[8] = system: MDA-N
[9] = system: T-47D breast
[10] = system: CAKI-1 renal
[11] = system: SF-268 CNS
[12] = system: UO-31 renal
[13] = system: HCT-15 colon
[14] = system: OVCAR-4 ovarian
[15] = system: HS 578T breast
[16] = system: K-562 leukemia
[17] = system: SF-539 CNS
[18] = system: SNB-19 CNS
[19] = system: OVCAR-8 ovarian
[20] = system: SK-OV-3 ovarian
[21] = system: CCRF-CEM leukemia
[22] = system: SK-MEL-5 melanoma
[23] = system: MALME-3M melanoma
[24] = system: HCT-116 colon
[25] = system: HOP-62 NSCLC
[26] = system: RXF 393 renal
[27] = system: SW-620 colon
[28] = system: HCC-2998 colon
[29] = system: KM12 colon
[30] = system: NCI-H522 lung
[31] = system: 786-0 renal
[32] = system: HOP-92 NSCLC
[33] = system: A498 renal
[34] = system: TK-10 renal
[35] = system: U251 CNS
[36] = system: NCI-H23 lung
[37] = system: EKVX NSCLC
[38] = system: SR leukemia
[39] = system: MOLT-4 leukemia
[40] = system: A549 NSCLC
[41] = system: SK-MEL-2 melanoma
[42] = system: COLO 205 colon
[43] = system: IGROV1 ovarian
[44] = system: SNB-75 CNS
[45] = system: OVCAR-5 ovarian
[46] = system: PC-3 prostate
[47] = system: HT29 colon
[48] = system: LOX IMVI melanoma
[49] = system: NCI/ADR-RES ovarian
[50] = system: SK-MEL-28 melanoma
[51] = system: MDA-MB-231 breast
[52] = system: OVCAR-3 ovarian
[53] = system: BT-549 breast
[54] = system: MCF7 breast
[55] = system: NCI-H226 lung
[56] = system: SF-295 CNS
[57] = system: UACC-257 melanoma
[58] = system: M14 melanoma
[59] = system: HL-60(TB) leukemia

SMILES: CCC(=O)NCCc1c[nH]c2ccc(OC)cc12
- TGI [1]: > 100 µM
- TGI [2]: > 100 µM
- TGI [3]: > 100 µM
- TGI [4]: > 100 µM
- TGI [5]: > 100 µM
- TGI [6]: > 100 µM
- TGI [7]: > 100 µM
- TGI [8]: > 100 µM
- TGI [9]: > 100 µM
- TGI [10]: > 100 µM
- TGI [11]: > 100 µM
- TGI [12]: > 100 µM
- TGI [13]: > 100 µM
- TGI [14]: > 100 µM
- TGI [15]: > 100 µM
- TGI [16]: > 100 µM
- TGI [17]: > 100 µM
- TGI [18]: > 100 µM
- TGI [19]: > 100 µM
- TGI [20]: > 100 µM
- TGI [21]: > 100 µM
- TGI [22]: > 100 µM
- TGI [23]: > 100 µM
- TGI [24]: > 100 µM
- TGI [25]: > 100 µM
- TGI [26]: > 100 µM
- TGI [27]: > 100 µM
- TGI [28]: > 100 µM
- TGI [29]: > 100 µM
- TGI [30]: > 100 µM
- TGI [31]: > 100 µM
- TGI [32]: > 100 µM
- TGI [33]: > 100 µM
- TGI [34]: > 100 µM
- TGI [35]: > 100 µM
- TGI [36]: > 100 µM
- TGI [37]: > 100 µM
- TGI [38]: > 100 µM
- TGI [39]: > 100 µM
- TGI [40]: > 100 µM
- TGI [41]: > 100 µM
- TGI [42]: > 100 µM
- TGI [43]: > 100 µM
- TGI [44]: > 100 µM
- TGI [45]: > 100 µM
- TGI [46]: > 100 µM
- TGI [47]: > 100 µM
- TGI [48]: > 100 µM
- TGI [49]: > 100 µM
- TGI [50]: > 100 µM
- TGI [51]: > 100 µM
- TGI [52]: > 100 µM
- TGI [53]: > 100 µM
- TGI [54]: > 100 µM
- TGI [55]: > 100 µM
- TGI [56]: > 100 µM
- TGI [57]: > 100 µM
- TGI [58]: > 100 µM

SMILES: CC(C)C(N)(C(=O)O)c1ccccc1 (centres undefined)
- TGI [1]: > 100 µM
- TGI [2]: > 100 µM
- TGI [3]: > 100 µM
- TGI [4]: > 100 µM
- TGI [5]: > 100 µM
- TGI [6]: > 100 µM
- TGI [7]: > 100 µM
- TGI [8]: > 100 µM
- TGI [9]: > 100 µM
- TGI [10]: > 100 µM
- TGI [11]: > 100 µM
- TGI [12]: > 100 µM
- TGI [13]: > 100 µM
- TGI [14]: > 100 µM
- TGI [15]: > 100 µM
- TGI [16]: > 100 µM
- TGI [18]: > 100 µM
- TGI [19]: > 100 µM
- TGI [20]: > 100 µM
- TGI [21]: > 100 µM
- TGI [22]: > 100 µM
- TGI [23]: > 100 µM
- TGI [24]: > 100 µM
- TGI [25]: > 100 µM
- TGI [26]: > 100 µM
- TGI [59]: > 100 µM
- TGI [27]: > 100 µM
- TGI [28]: > 100 µM
- TGI [29]: > 100 µM
- TGI [30]: > 100 µM
- TGI [31]: > 100 µM
- TGI [32]: > 100 µM
- TGI [33]: > 100 µM
- TGI [34]: > 100 µM
- TGI [35]: > 100 µM
- TGI [36]: > 100 µM
- TGI [37]: > 100 µM
- TGI [38]: > 100 µM
- TGI [40]: > 100 µM
- TGI [41]: > 100 µM
- TGI [42]: > 100 µM
- TGI [43]: > 100 µM
- TGI [44]: > 100 µM
- TGI [45]: > 100 µM
- TGI [46]: > 100 µM
- TGI [47]: > 100 µM
- TGI [48]: > 100 µM
- TGI [49]: > 100 µM
- TGI [50]: > 100 µM
- TGI [51]: > 100 µM
- TGI [52]: > 100 µM
- TGI [53]: > 100 µM
- TGI [54]: > 100 µM
- TGI [55]: > 100 µM
- TGI [56]: > 100 µM
- TGI [57]: > 100 µM
- TGI [58]: > 100 µM

SMILES: CC(=O)OC1CCC2(C)C(=CC(C3C=C4CC(OC(C)=O)CCC4(C)C4=C3C3CC5OC6(CCC(C)CO6)C(C)C5C3(C)CC4)C3=C2CCC2(C)C3CC3OC4(CCC(C)CO4)C(C)C32)C1 (centres undefined)
- TGI [1]: 26.1 µM
- TGI [2]: 27.2 µM
- TGI [3]: 31.9 µM
- TGI [5]: 16.2 µM
- TGI [6]: 29.2 µM
- TGI [7]: 27.1 µM
- TGI [8]: 30.9 µM
- TGI [9]: 42.7 µM
- TGI [10]: 32.1 µM
- TGI [11]: 23.5 µM
- TGI [12]: 28.9 µM
- TGI [13]: 28.4 µM
- TGI [14]: 28.2 µM
- TGI [15]: 17 µM
- TGI [16]: 15.2 µM
- TGI [18]: 30.4 µM
- TGI [19]: 23.1 µM
- TGI [20]: 32.7 µM
- TGI [22]: 25.7 µM
- TGI [23]: 26.4 µM
- TGI [24]: 28.4 µM
- TGI [25]: 32.5 µM
- TGI [26]: 31.5 µM
- TGI [29]: 35.7 µM
- TGI [30]: 19.4 µM
- TGI [31]: 29.6 µM
- TGI [32]: 27.1 µM
- TGI [33]: 30.8 µM
- TGI [34]: 27.6 µM
- TGI [35]: 27.8 µM
- TGI [36]: 27.9 µM
- TGI [37]: 37.1 µM
- TGI [38]: 28.3 µM
- TGI [39]: 4.7 µM
- TGI [40]: 26.5 µM
- TGI [41]: 33.9 µM
- TGI [42]: 36.1 µM
- TGI [43]: 23.6 µM
- TGI [44]: 29.9 µM
- TGI [45]: 35.9 µM
- TGI [46]: 25.6 µM
- TGI [47]: 27.2 µM
- TGI [48]: 30.1 µM
- TGI [49]: 37.7 µM
- TGI [50]: 31.5 µM
- TGI [51]: 32 µM
- TGI [52]: 28.6 µM
- TGI [53]: 29.7 µM
- TGI [54]: 21.9 µM
- TGI [55]: 41.5 µM
- TGI [56]: 26.5 µM
- TGI [57]: 21.9 µM
- TGI [58]: 26.9 µM

SMILES: Cc1cn(C2CC(N=[N+]=[N-])C(CO[Si](C)(C)C(C)(C)C)O2)c(=O)[nH]c1=O (centres undefined)
- TGI [1]: 29.8 µM
- TGI [2]: 45.1 µM
- TGI [3]: 30.4 µM
- TGI [5]: 47.1 µM
- TGI [6]: 48 µM
- TGI [7]: 38.2 µM
- TGI [8]: 34.2 µM
- TGI [9]: 75.6 µM
- TGI [10]: 37.1 µM
- TGI [11]: 45.8 µM
- TGI [12]: 30.7 µM
- TGI [13]: 37.9 µM
- TGI [14]: 28.1 µM
- TGI [15]: 40.1 µM
- TGI [16]: 47.6 µM
- TGI [17]: 35.6 µM
- TGI [18]: 38.3 µM
- TGI [19]: 37.1 µM
- TGI [20]: 37.1 µM
- TGI [21]: 60.9 µM
- TGI [22]: 32.4 µM
- TGI [23]: 28.1 µM
- TGI [24]: 29.6 µM
- TGI [25]: 34.1 µM
- TGI [26]: 32.3 µM
- TGI [59]: 72.4 µM
- TGI [27]: 35.7 µM
- TGI [28]: 26.5 µM
- TGI [29]: 32.5 µM
- TGI [30]: 35.6 µM
- TGI [31]: 29.1 µM
- TGI [33]: 30.7 µM
- TGI [34]: 30.5 µM
- TGI [35]: 33 µM
- TGI [36]: 40.2 µM
- TGI [37]: 58.1 µM
- TGI [38]: 56.8 µM
- TGI [39]: > 100 µM
- TGI [40]: 87.8 µM
- TGI [41]: 33.8 µM
- TGI [42]: 35.6 µM
- TGI [43]: 37.3 µM
- TGI [44]: 42.9 µM
- TGI [45]: 49.1 µM
- TGI [46]: 38.9 µM
- TGI [47]: 32.4 µM
- TGI [48]: 31.5 µM
- TGI [49]: 36 µM
- TGI [51]: 29.5 µM
- TGI [52]: 34.9 µM
- TGI [53]: 23.7 µM
- TGI [54]: 58 µM
- TGI [55]: 29.6 µM
- TGI [56]: 34.6 µM
- TGI [57]: 42 µM
- TGI [58]: 41.5 µM

— PubChem BioAssay (NCI)
